# Test results reported in the supplement of paper PMC11208160.
# Assay: recombinant barcode read abundance after kanamycin selection (control-corrected) (log10(CPM+1)); higher = more efficient recombination; sequences stand for … in AGTGCAGAGAAAATCGGCCAGTTTTCTCTGCCTGCAGTCCGCATGCCGT…ATTTATGCAGCGGACTGCCTTTCTCCCAAAGTGATAAACCGGACAGTATCATGGACCGGTTTTCCCGGTAATCCGTATTTGCAAGGTTGGTTTCACT; site = the 11-nt target
# How it was run: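 This pooled E. coli screen matched targets with IS621 bridge RNA target-binding loops. Plating was done in duplicate on chloramphenicol/ampicillin LB agar as a control and on chloramphenicol/ampicillin/kanamycin plus 0.1 mM IPTG. Recombination efficiency reflects barcode counts at recombinant junctions as counts per million, averaged and control-corrected. The figures are log10(CPM+1).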
row,Sequence,recombinant barcode read abundance (log10)
1,"AGGCCTCCTTGGGTTCTAACCTGTTGCCTTT [AGGCCTCCTAG_LTGcore_CT_RTGcore_AA] (site AGGCCTCCTAG) (LTG core: CT, RTG core: AA)",0.116
2,"AAACACACTTGGGTTCTAACCTGTTGCCTGA [AAACACACTAG_LTGcore_CT_RTGcore_TC] (site AAACACACTAG) (LTG core: CT, RTG core: TC)",1.19
3,"AGGCGGGTCTGGGTTCTAACCTGTTGCGGAG [AGGCGGGCTCC_LTGcore_TC_RTGcore_CT] (site AGGCGGGCTCC) (LTG core: TC, RTG core: CT)",0.95
4,"TTATAAAATTGGGTTCTAACCTGTTGCCTAT [TTATAAACTAG_LTGcore_AT_RTGcore_AT] (site TTATAAACTAG) (LTG core: AT, RTG core: AT)",0.124
5,"CATATTACTTGGGTTCTAACCTGTTGCCTTC [CATATTACTAG_LTGcore_CT_RTGcore_GA] (site CATATTACTAG) (LTG core: CT, RTG core: GA)",0.084
6,"GAGCCCACTTGGGTTCTAACCTGTTGCCTGG [GAGCCCACTAG_LTGcore_CT_RTGcore_CC] (site GAGCCCACTAG) (LTG core: CT, RTG core: CC)",0.911
7,"GCGGGACCTTGGGTTCTAACCTGTTGCCTTC [GCGGGACCTAG_LTGcore_CT_RTGcore_GA] (site GCGGGACCTAG) (LTG core: CT, RTG core: GA)",1.19
8,"GTCGCCCGGTGGGTTCTAACCTGTTGCTAAG [GTCGCCCCTTA_LTGcore_GG_RTGcore_CT] (site GTCGCCCCTTA) (LTG core: GG, RTG core: CT)",0.0246
9,"GAGGCCTCTTGGGTTCTAACCTGTTGCCAGA [GAGGCCTCTTG_LTGcore_CT_RTGcore_TC] (site GAGGCCTCTTG) (LTG core: CT, RTG core: TC)",0.245
10,"AAACAGTGCTGGGTTCTAACCTGTTGCCTGC [AAACAGTCTAG_LTGcore_GC_RTGcore_GC] (site AAACAGTCTAG) (LTG core: GC, RTG core: GC)",0.0997
11,"GGCTCCCCTTGGGTTCTAACCTGTTGCGGTG [GGCTCCCCTCC_LTGcore_CT_RTGcore_CA] (site GGCTCCCCTCC) (LTG core: CT, RTG core: CA)",0.251
12,"GAGTCCTACTGGGTTCTAACCTGTTGCCTAG [GAGTCCTCTAG_LTGcore_AC_RTGcore_CT] (site GAGTCCTCTAG) (LTG core: AC, RTG core: CT)",0.674
13,"GTCGCCCCTTGGGTTCTAACCTGTTGCTATA [GTCGCCCCTTA_LTGcore_CT_RTGcore_TA] (site GTCGCCCCTTA) (LTG core: CT, RTG core: TA)",0.0812
14,"AGGCGGGCTTGGGTTCTAACCTGTTGCGGTG [AGGCGGGCTCC_LTGcore_CT_RTGcore_CA] (site AGGCGGGCTCC) (LTG core: CT, RTG core: CA)",0.201
15,"GGCTCCCCTTGGGTTCTAACCTGTTGCGGTA [GGCTCCCCTCC_LTGcore_CT_RTGcore_TA] (site GGCTCCCCTCC) (LTG core: CT, RTG core: TA)",0.101
16,"TTATAAACCTGGGTTCTAACCTGTTGCCTGG [TTATAAACTAG_LTGcore_CC_RTGcore_CC] (site TTATAAACTAG) (LTG core: CC, RTG core: CC)",0.0325
17,"AAACAGTGTTGGGTTCTAACCTGTTGCCTAG [AAACAGTCTAG_LTGcore_GT_RTGcore_CT] (site AAACAGTCTAG) (LTG core: GT, RTG core: CT)",0.0452
18,"AGGCGGTCTTGGGTTCTAACCTGTTGCTTGG [AGGCGGTCTAA_LTGcore_CT_RTGcore_CC] (site AGGCGGTCTAA) (LTG core: CT, RTG core: CC)",0.244
19,"ACGGGACGCTGGGTTCTAACCTGTTGCAGAG [ACGGGACCTCT_LTGcore_GC_RTGcore_CT] (site ACGGGACCTCT) (LTG core: GC, RTG core: CT)",0.257
20,"TTATAAAGTTGGGTTCTAACCTGTTGCCTAG [TTATAAACTAG_LTGcore_GT_RTGcore_CT] (site TTATAAACTAG) (LTG core: GT, RTG core: CT)",0.109
21,"TTATAAACTTGGGTTCTAACCTGTTGCCTGG [TTATAAACTAG_LTGcore_CT_RTGcore_CC] (site TTATAAACTAG) (LTG core: CT, RTG core: CC)",0.574
22,"AAACACACTTGGGTTCTAACCTGTTGCCTCT [AAACACACTAG_LTGcore_CT_RTGcore_AG] (site AAACACACTAG) (LTG core: CT, RTG core: AG)",2.46
23,"GGGAGCCCTTGGGTTCTAACCTGTTGCTGCG [GGGAGCCCTCA_LTGcore_CT_RTGcore_CG] (site GGGAGCCCTCA) (LTG core: CT, RTG core: CG)",0.147

row,Sequence,recombinant barcode read abundance (log10)
1,"AGGCGGGATTGGGTTCTAACCTGTTGCGGAT [AGGCGGGCTCC_LTGcore_AT_RTGcore_AT] (site AGGCGGGCTCC) (LTG core: AT, RTG core: AT)",0.178
2,"TTATAAAATTGGGTTCTAACCTGTTGCCTAG [TTATAAACTAG_LTGcore_AT_RTGcore_CT] (site TTATAAACTAG) (LTG core: AT, RTG core: CT)",0.0851
3,"AAACATGTTTGGGTTCTAACCTGTTGCCTAG [AAACATGCTAG_LTGcore_TT_RTGcore_CT] (site AAACATGCTAG) (LTG core: TT, RTG core: CT)",0.0409
4,"AGGAGGTTATGGGTTCTAACCTGTTGCCTAG [AGGAGGTCTAG_LTGcore_TA_RTGcore_CT] (site AGGAGGTCTAG) (LTG core: TA, RTG core: CT)",0.0987
5,"GGACACCGTTGGGTTCTAACCTGTTGCCTAC [GGACACCCTAG_LTGcore_GT_RTGcore_GT] (site GGACACCCTAG) (LTG core: GT, RTG core: GT)",0.944
6,"GGTGCCCCTTGGGTTCTAACCTGTTGCCGGA [GGTGCCCCTCG_LTGcore_CT_RTGcore_TC] (site GGTGCCCCTCG) (LTG core: CT, RTG core: TC)",0.0539
7,"ATGCTTTCTTGGGTTCTAACCTGTTGCCTTA [ATGCTTTCTAG_LTGcore_CT_RTGcore_TA] (site ATGCTTTCTAG) (LTG core: CT, RTG core: TA)",0.0193
8,"CGCGCCCGTTGGGTTCTAACCTGTTGCGGAC [CGCGCCCCTCC_LTGcore_GT_RTGcore_GT] (site CGCGCCCCTCC) (LTG core: GT, RTG core: GT)",0.421
9,"ATGTCCCCTTGGGTTCTAACCTGTTGCTCAG [ATGTCCCCTGA_LTGcore_CT_RTGcore_CT] (site ATGTCCCCTGA) (LTG core: CT, RTG core: CT)",1.46
10,"AGGCGGTGATGGGTTCTAACCTGTTGCTTTC [AGGCGGTCTAA_LTGcore_GA_RTGcore_GA] (site AGGCGGTCTAA) (LTG core: GA, RTG core: GA)",0.101
11,"TTATAAACTTGGGTTCTAACCTGTTGCCTAT [TTATAAACTAG_LTGcore_CT_RTGcore_AT] (site TTATAAACTAG) (LTG core: CT, RTG core: AT)",0.302
12,"GCGCGACCATGGGTTCTAACCTGTTGCTTTG [GCGCGACCTAA_LTGcore_CA_RTGcore_CA] (site GCGCGACCTAA) (LTG core: CA, RTG core: CA)",0.125
13,"TTATAAATTTGGGTTCTAACCTGTTGCCTAG [TTATAAACTAG_LTGcore_TT_RTGcore_CT] (site TTATAAACTAG) (LTG core: TT, RTG core: CT)",0.0473
14,"AGGCGGGATTGGGTTCTAACCTGTTGCGGAG [AGGCGGGCTCC_LTGcore_AT_RTGcore_CT] (site AGGCGGGCTCC) (LTG core: AT, RTG core: CT)",0.447
15,"GGTGCCCTGTGGGTTCTAACCTGTTGCCGAG [GGTGCCCCTCG_LTGcore_TG_RTGcore_CT] (site GGTGCCCCTCG) (LTG core: TG, RTG core: CT)",0.108
16,"TTATAAACTTGGGTTCTAACCTGTTGCCTAC [TTATAAACTAG_LTGcore_CT_RTGcore_GT] (site TTATAAACTAG) (LTG core: CT, RTG core: GT)",0.944
17,"TCGCGACCCTGGGTTCTAACCTGTTGCCGGG [TCGCGACCTCG_LTGcore_CC_RTGcore_CC] (site TCGCGACCTCG) (LTG core: CC, RTG core: CC)",0.353
18,"CATATTACTTGGGTTCTAACCTGTTGCCTAA [CATATTACTAG_LTGcore_CT_RTGcore_TT] (site CATATTACTAG) (LTG core: CT, RTG core: TT)",0.105
19,"TAAGAATTGTGGGTTCTAACCTGTTGCCTAG [TAAGAATCTAG_LTGcore_TG_RTGcore_CT] (site TAAGAATCTAG) (LTG core: TG, RTG core: CT)",0.153
20,"AAACATGCTTGGGTTCTAACCTGTTGCCTCT [AAACATGCTAG_LTGcore_CT_RTGcore_AG] (site AAACATGCTAG) (LTG core: CT, RTG core: AG)",0.435
21,"CGCGCCCTGTGGGTTCTAACCTGTTGCGGCA [CGCGCCCCTCC_LTGcore_TG_RTGcore_TG] (site CGCGCCCCTCC) (LTG core: TG, RTG core: TG)",0.0883
22,"TGATACCCTTGGGTTCTAACCTGTTGCGTTC [TGATACCCTAC_LTGcore_CT_RTGcore_GA] (site TGATACCCTAC) (LTG core: CT, RTG core: GA)",0.335
